Peptide text beside a SMILES is read from it.
Assays:
Escherichia coli [1] = assay: Inhibition of Escherichia coli degP assessed as specific activity at 0.5 mM; parameters: scale not given: the % may be the effect or the level left
[2] = Inhibition of elastase assessed as specific activity at 0.5 mM; parameters: scale not given: the % may be the effect or the level left
[3] = Inhibition of subtilisin assessed as specific activity at 0.5 mM; parameters: scale not given: the % may be the effect or the level left
[4] = biological target: Plasminogen (Homo sapiens) (UniProt P00747); assay: Inhibition of plasmin assessed as specific activity at 0.5 mM; parameters: scale not given: the % may be the effect or the level left
[5] = Inhibition of trypsin assessed as specific activity at 0.5 mM; parameters: scale not given: the % may be the effect or the level left
[6] = Inhibition of chymotrypsin assessed as specific activity at 0.5 mM; parameters: scale not given: the % may be the effect or the level left
[7] = biological target: Prothrombin (Homo sapiens) (UniProt P00734); assay: Inhibition of thrombin assessed as specific activity at 0.5 mM; parameters: scale not given: the % may be the effect or the level left
[8] = Inhibition of kallikrein assessed as specific activity at 0.5 mM; parameters: scale not given: the % may be the effect or the level left
Escherichia coli [9] = assay: Inhibition of Escherichia coli degP assessed as residual proteolytic activity at 0.5 mM
[10] = Inhibition of elastase assessed as residual proteolytic activity at 0.5 mM
[11] = Inhibition of subtilisin assessed as residual proteolytic activity at 0.5 mM
[12] = biological target: Plasminogen (Homo sapiens) (UniProt P00747); assay: Inhibition of plasmin assessed as residual proteolytic activity at 0.5 mM
[13] = Inhibition of trypsin assessed as residual proteolytic activity at 0.5 mM
[14] = Inhibition of chymotrypsin assessed as residual proteolytic activity at 0.5 mM
[15] = biological target: Prothrombin (Homo sapiens) (UniProt P00734); assay: Inhibition of thrombin assessed as residual proteolytic activity at 0.5 mM
[16] = Inhibition of kallikrein assessed as residual proteolytic activity at 0.5 mM

Chain of Plasminogen (Homo sapiens) (P00747 97-580 limits assumed): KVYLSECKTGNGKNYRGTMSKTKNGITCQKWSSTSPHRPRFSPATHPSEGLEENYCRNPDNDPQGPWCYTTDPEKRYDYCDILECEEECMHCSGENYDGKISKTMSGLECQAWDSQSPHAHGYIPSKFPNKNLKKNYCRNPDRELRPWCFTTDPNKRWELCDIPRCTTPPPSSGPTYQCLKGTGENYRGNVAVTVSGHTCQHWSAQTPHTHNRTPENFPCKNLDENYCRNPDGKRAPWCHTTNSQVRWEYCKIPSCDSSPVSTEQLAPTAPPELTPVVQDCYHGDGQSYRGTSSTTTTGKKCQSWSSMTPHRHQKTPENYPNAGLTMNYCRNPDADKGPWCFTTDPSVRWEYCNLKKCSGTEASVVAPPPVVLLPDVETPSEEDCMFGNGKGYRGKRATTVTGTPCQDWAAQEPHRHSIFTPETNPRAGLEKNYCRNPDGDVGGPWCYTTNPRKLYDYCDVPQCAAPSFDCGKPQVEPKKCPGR
Chain of Plasminogen (Homo sapiens) (P00747 581-810 limits assumed): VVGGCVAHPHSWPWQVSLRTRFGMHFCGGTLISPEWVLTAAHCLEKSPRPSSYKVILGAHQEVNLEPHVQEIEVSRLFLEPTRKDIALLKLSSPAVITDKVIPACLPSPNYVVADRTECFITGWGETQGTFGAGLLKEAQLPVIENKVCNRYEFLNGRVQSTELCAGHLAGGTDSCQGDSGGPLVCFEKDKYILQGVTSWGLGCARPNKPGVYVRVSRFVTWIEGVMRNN

| Structure (SMILES) | Activity (Escherichia coli [9]) [%] | Activity [10] [%] | Activity [11] [%] | Activity [12] [%] | Activity [13] [%] | Activity [14] [%] | Activity [15] [%] | Activity [16] [%] | Activity (Escherichia coli [1]) [%] | Activity [2] [%] | Activity [3] [%] | Activity [4] [%] | Activity [5] [%] | Activity [6] [%] | Activity [7] [%] | Activity [8] [%] |
| --- | --- | --- | --- | --- | --- | --- | --- | --- | --- | --- | --- | --- | --- | --- | --- | --- |
| CC(C)[C@H](NC(=O)CNC(=O)CNC(=O)[C@H](CC(=O)O)NC(=O)[C@@H](NC(=O)[C@@H](N)CO)[C@@H](C)O)C(=O)Nc1ccc([N+](=O)[O-])cc1 (HELM PEPTIDE1{S.T.D.G.G.V.[O=[N+]([O-])c1ccc(N[*:1])cc1]}$$$$V2.0) |  |  |  |  |  |  |  |  | < 1 | 5 | < 1 | 2 | < 1 | < 1 | < 1 | < 1 |
| CSCC[C@H](NC(=O)[C@H](CCSC)NC(=O)[C@@H]1CCCN1C(=O)[C@H](CC(C)C)NC(=O)[C@@H](NC(=O)[C@H](CC(N)=O)NC(=O)[C@H](Cc1ccccc1)NC(=O)[C@@H](NC(=O)[C@@H]1CCCN1)C(C)C)[C@H](C)O)C(=O)NCC(=O)N[C@@H](CCCCN)C(=O)N[C@@H](C)C(=O)N[C@@H](CO)C(=O)N1CCC[C@H]1C(=O)N[C@H](C(=O)Nc1ccc([N+](=O)[O-])cc1)C(C)C |  |  |  |  |  |  |  |  | 18 | 69 | < 1 | < 1 | 1 | 3 | < 1 | < 1 |
| CC(C)C[C@H](NC(=O)CNC(=O)[C@H](C)NC(=O)CNC(=O)[C@@H]1CCCN1C(=O)[C@@H](NC(=O)[C@H](CO)NC(=O)[C@H](C)NC(=O)CNC(=O)[C@@H](N)CCCCN)C(C)C)C(=O)N[C@H](C(=O)Nc1ccc([N+](=O)[O-])cc1)C(C)C (HELM PEPTIDE1{K.G.A.S.V.P.G.A.G.L.V.[O=[N+]([O-])c1ccc(N[*:1])cc1]}$$$$V2.0) |  |  |  |  |  |  |  |  | < 1 | 6 | < 1 | < 1 | < 1 | < 1 | < 1 | < 1 |
| CSCC[C@H](NC(=O)[C@@H]1CCCN1C(=O)[C@@H](N)CO)C(=O)N[C@@H](Cc1ccccc1)C(=O)N[C@@H](CCCCN)C(=O)NCC(=O)N[C@H](C(=O)Nc1ccc([N+](=O)[O-])cc1)C(C)C (HELM PEPTIDE1{S.P.M.F.K.G.V.[O=[N+]([O-])c1ccc(N[*:1])cc1]}$$$$V2.0) |  |  |  |  |  |  |  |  | 18 | 7 | 3 | < 1 | < 1 | < 1 | < 1 | < 1 |
| N=C(N)NCCC[C@H](NC(=O)c1ccccc1)C(=O)Nc1ccc([N+](=O)[O-])cc1 |  |  |  |  |  |  |  |  | < 1 | < 1 | < 1 | < 1 | 758 | < 1 | 3 | 24 |
| CSCC[C@H](NC(=O)[C@H](CCSC)NC(=O)[C@@H]1CCCN1C(=O)[C@H](CC(C)C)NC(=O)[C@@H](NC(=O)[C@H](CC(N)=O)NC(=O)[C@H](Cc1ccccc1)NC(=O)[C@@H](N)C(C)C)[C@@H](C)O)C(=O)NCC(=O)N[C@@H](CCCCN)C(=O)N[C@@H](C)C(=O)N[C@@H](CO)C(=O)N1CCC[C@H]1C(=O)N[C@H](C(=O)Nc1ccc([N+](=O)[O-])cc1)C(C)C (HELM PEPTIDE1{V.F.N.T.L.P.M.M.G.K.A.S.P.V.[O=[N+]([O-])c1ccc(N[*:1])cc1]}$$$$V2.0) |  |  |  |  |  |  |  |  | 32 | 89 | < 1 | < 1 | < 1 | 8 | < 1 | < 1 |
| CC(C)C[C@H](NC(=O)CN)C(=O)N[C@@H](C)C(=O)N[C@H](C(=O)NCC(=O)N[C@@H](CC(N)=O)C(=O)N[C@H](C(=O)N[C@@H](CO)C(=O)N[C@H](C(=O)N[C@@H](C)C(=O)N[C@@H](CCC(=O)O)C(=O)N[C@@H](CC(C)C)C(=O)N[C@@H](CCC(N)=O)C(=O)N[C@@H](CC(=O)O)C(=O)N[C@@H](C)C(=O)N[C@H](C(=O)N1CCC[C@H]1C(=O)N[C@@H](C)C(=O)Nc1ccc([N+](=O)[O-])cc1)[C@H](C)O)[C@@H](C)O)C(C)C)[C@@H](C)O |  |  |  |  |  |  |  |  | < 1 | 24 | 1520 | < 1 | < 1 | 26 | < 1 | < 1 |
| CC(C)[C@H](NC(=O)[C@H](CCCNC(=N)N)NC(=O)CNC(=O)[C@@H](N)CO)C(=O)N[C@H](C(=O)N1CCC[C@H]1C(=O)NCC(=O)N[C@@H](Cc1ccc(O)cc1)C(=O)NCC(=O)N[C@@H](Cc1cnc[nH]1)C(=O)N[C@@H](C)C(=O)Nc1ccc([N+](=O)[O-])cc1)C(C)C (HELM PEPTIDE1{S.G.R.V.V.P.G.Y.G.H.A.[O=[N+]([O-])c1ccc(N[*:1])cc1]}$$$$V2.0) |  |  |  |  |  |  |  |  | < 1 | 56 | 2970 | < 1 | < 1 | < 1 | < 1 | < 1 |
| CC(C)[C@H](NC(=O)[C@@H]1CCCN1C(=O)[C@@H](NC(=O)[C@H](C)NC(=O)CNC(=O)[C@H](CO)NC(=O)CNC(=O)[C@H](CO)NC(=O)[C@H](CC(N)=O)NC(=O)[C@H](CCCCN)NC(=O)CNC(=O)[C@@H](N)CCCCN)[C@@H](C)O)C(=O)Nc1ccc([N+](=O)[O-])cc1 (HELM PEPTIDE1{K.G.K.N.S.G.S.G.A.T.P.V.[O=[N+]([O-])c1ccc(N[*:1])cc1]}$$$$V2.0) |  |  |  |  |  |  |  |  | < 1 | 74 | 34 | < 1 | < 1 | 5 | < 1 | < 1 |
| CC(C)[C@H](NC(=O)[C@H](CCC(=O)O)NC(=O)[C@H](Cc1ccc(O)cc1)NC(=O)CNC(=O)[C@H](CO)NC(=O)[C@H](CC(=O)O)NC(=O)[C@H](Cc1cnc[nH]1)NC(=O)[C@H](CCCNC(=N)N)NC(=O)[C@H](Cc1ccccc1)NC(=O)[C@H](CCC(=O)O)NC(=O)[C@H](C)NC(=O)[C@H](CC(=O)O)NC(=O)[C@@H](N)CO)C(=O)Nc1ccc([N+](=O)[O-])cc1 |  |  |  |  |  |  |  |  | < 1 | 8 | 2 | < 1 | < 1 | < 1 | < 1 | < 1 |
| CSCC[C@H](NC(=O)[C@H](CCSC)NC(=O)[C@@H]1CCCN1)C(=O)NCC(=O)N[C@@H](CCCCN)C(=O)N[C@@H](C)C(=O)N[C@@H](CO)C(=O)N1CCC[C@H]1C(=O)N[C@H](C(=O)Nc1ccc([N+](=O)[O-])cc1)C(C)C (HELM PEPTIDE1{P.M.M.G.K.A.S.P.V.[O=[N+]([O-])c1ccc(N[*:1])cc1]}$$$$V2.0) |  |  |  |  |  |  |  |  | 1 | 96 | < 1 | 4 | < 1 | < 1 | < 1 | < 1 |

Now from value to compound, other results behind:

| Activity (Escherichia coli [9]) [%] | Activity [10] [%] | Activity [11] [%] | Activity [12] [%] | Activity [13] [%] | Activity [14] [%] | Activity [15] [%] | Activity [16] [%] | Structure (SMILES) | Activity (Escherichia coli [1]) [%] | Activity [2] [%] | Activity [3] [%] | Activity [4] [%] | Activity [5] [%] | Activity [6] [%] | Activity [7] [%] | Activity [8] [%] |
| --- | --- | --- | --- | --- | --- | --- | --- | --- | --- | --- | --- | --- | --- | --- | --- | --- |
| 102 | 83 | 15 | 62 | 285 | 69 | 131 | 135 | CC(C)[C@H](NC(=O)[C@H](CCCNC(=N)N)NC(=O)CNC(=O)[C@@H](N)CO)C(=O)N[C@H](C(=O)N1CCC[C@H]1C(=O)NCC(=O)N[C@@H](Cc1ccc(O)cc1)C(=O)NCC(=O)N[C@@H](Cc1cnc[nH]1)C(=O)N[C@@H](C)C(=O)CCl)C(C)C (HELM PEPTIDE1{S.G.R.V.V.P.G.Y.G.H.A.[ClC[*:1]]}$$$$V2.0) |  |  |  |  |  |  |  |  |
| 63 | < 1 | 143 | 62 | 591 | 48 | 101 | 122 | CSCC[C@H](NC(=O)[C@H](CCSC)NC(=O)[C@@H]1CCCN1C(=O)[C@H](CC(C)C)NC(=O)[C@@H](NC(=O)[C@H](CC(N)=O)NC(=O)[C@H](Cc1ccccc1)NC(=O)[C@@H](NC(=O)[C@@H]1CCCN1)C(C)C)[C@@H](C)O)C(=O)NCC(=O)N[C@@H](CCCCN)C(=O)N[C@@H](C)C(=O)N[C@@H](CO)C(=O)N1CCC[C@H]1C(=O)N[C@H](C(=O)CCl)C(C)C (HELM PEPTIDE1{P.V.F.N.T.L.P.M.M.G.K.A.S.P.V.[ClC[*:1]]}$$$$V2.0) |  |  |  |  |  |  |  |  |
| 101 | 60 | 15 | 74 | 410 | 78 | 98 | 111 | CC[C@H](C)[C@H](N)C(=O)N[C@@H](Cc1c[nH]c2ccccc12)C(=O)N[C@@H](CC(N)=O)C(=O)N[C@H](C(=O)N[C@@H](CC(C)C)C(=O)N[C@@H](CC(N)=O)C(=O)N[C@@H](CO)C(=O)NCC(=O)N[C@@H](CCCNC(=N)N)C(=O)N[C@H](C(=O)N[C@H](C(=O)N1CCC[C@H]1C(=O)NCC(=O)N[C@H](C(=O)NCC(=O)N[C@@H](Cc1cnc[nH]1)C(=O)N[C@@H](C)C(=O)CCl)[C@@H](C)O)C(C)C)C(C)C)[C@@H](C)O (HELM PEPTIDE1{I.W.N.T.L.N.S.G.R.V.V.P.G.T.G.H.A.[ClC[*:1]]}$$$$V2.0) |  |  |  |  |  |  |  |  |
| 57 | < 1 | 155 | 75 | 287 | 22 | 102 | 88 | CSCC[C@H](NC(=O)[C@H](CCSC)NC(=O)[C@@H]1CCCN1C(=O)[C@H](CC(C)C)NC(=O)[C@@H](NC(=O)[C@H](CC(N)=O)NC(=O)[C@H](Cc1ccccc1)NC(=O)[C@@H](N)C(C)C)[C@@H](C)O)C(=O)NCC(=O)N[C@@H](CCCCN)C(=O)N[C@@H](C)C(=O)N[C@@H](CO)C(=O)N1CCC[C@H]1C(=O)N[C@H](C(=O)CCl)C(C)C (HELM PEPTIDE1{V.F.N.T.L.P.M.M.G.K.A.S.P.V.[ClC[*:1]]}$$$$V2.0) |  |  |  |  |  |  |  |  |

From ChEMBL document CHEMBL1153316, “Selectivity profiling of DegP substrates and inhibitors” (Bioorg Med Chem, 2009)
